Substitutions are numbered along the chain they refer to.
What was measured:
Assay type in all cases: biochemical, bovine
Gal-T1(Y289L,C342T) = target: T1, Gal-T1(Y289L,C342T) (Bos taurus, UniProt P08037, C342T/Y289L); experiment: Glycosyltransfer to trimmed trastuzumab with Gal-T1(Y289L,C342T) expressed in CHO; details: trimmed trastuzumab 10 mg/mL; UDP derivative 5 mM; enzyme 2.0 mg/mL; pH 8.0, 30° C. overnight
T1 construct: host or cells: CHO K1
T1 sequence (P08037 74-402 V158I/P187L/I205M/L206V/Y289L/C342T): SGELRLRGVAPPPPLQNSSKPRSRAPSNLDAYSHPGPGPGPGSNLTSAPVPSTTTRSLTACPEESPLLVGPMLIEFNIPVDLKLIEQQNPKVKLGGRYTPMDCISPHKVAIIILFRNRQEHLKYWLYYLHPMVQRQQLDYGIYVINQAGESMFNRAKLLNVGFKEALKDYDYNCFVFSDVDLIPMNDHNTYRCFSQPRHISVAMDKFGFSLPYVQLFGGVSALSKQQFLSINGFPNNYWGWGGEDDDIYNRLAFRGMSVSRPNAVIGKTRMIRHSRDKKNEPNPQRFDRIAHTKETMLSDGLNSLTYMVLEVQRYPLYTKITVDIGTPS
Experimental: (§1) A solution of 20 μg (modified) IgG was incubated for 1 hour at 37° C. with Fabricator™ (commercially available from Genovis, Lund, Sweden) (1.25 U/μL) in phosphate-buffered saline (PBS) pH 6.6 in a total volume of 10 μL. Fabricator™-digested samples were washed trice with milliQ using an Amicon Ultra-0.5, Ultracel-10 Membrane (Millipore) resulting in a final sample volume of approximately 40 μL. The Fc/2 fragment was analyzed by electrospray ionization time-of-flight (ESI-TOF) on a JEOL AccuTOF. Deconvoluted spectra were obtained using Magtran software.
(§2) A set of Gal-T 1 mutants encoding residues 74-402 of bovine Gal-T 1 were transiently expressed in CHO K1 cells by Evitria (Zurich, Switzerland) which include the Gal-T1 single mutants Y289L (represented by SEQ ID NO: 26), Y289F (represented by SEQ ID NO: 27), Y289M (represented by SEQ ID NO: 28), Y289V (represented by SEQ ID NO: 29), Y289A (represented by SEQ ID NO: 30), and Y289G (represented by SEQ ID NO: 31), and the Gal-T1 double mutants Y289L,C342T (represented by SEQ ID NO: 32), and Y289M,C342T (represented by SEQ ID NO: 33). The mutants were purified using a cation exchange column (Source 15S HR16/10 column, GE Healthcare) as described above. Purified proteins were analyzed by SDS-PAGE. […]

Gal-T1(Y289M) = target: T2, Gal-T1(Y289M) (Bos taurus, UniProt P08037, I205M/L206V/P187L/V158I/Y289M); experiment: Glycosyltransfer to trimmed trastuzumab with Gal-T1(Y289M) expressed in CHO; details: trimmed trastuzumab 10 mg/mL; UDP derivative 5 mM; enzyme 0.5 mg/mL; pH 8.0, 30° C. overnight
T2 construct: host or cells: CHO K1
T2 sequence (P08037 74-402 V158I/P187L/I205M/L206V/Y289M): T1 sequence (P08037 74-402 V158I/P187L/I205M/L206V/Y289L/C342T) with L216M, T269C
Excerpt: A set of Gal-T 1 mutants encoding residues 74-402 of bovine Gal-T 1 were transiently expressed in CHO K1 cells by Evitria (Zurich, Switzerland) which include the Gal-T1 single mutants Y289L (represented by SEQ ID NO: 26), Y289F (represented by SEQ ID NO: 27), Y289M (represented by SEQ ID NO: 28), Y289V (represented by SEQ ID NO: 29), Y289A (represented by SEQ ID NO: 30), and Y289G (represented by SEQ ID NO: 31), and the Gal-T1 double mutants Y289L,C342T (represented by SEQ ID NO: 32), and Y289M,C342T (represented by SEQ ID NO: 33). The mutants were purified using a cation exchange column (Source 15S HR16/10 column, GE Healthcare) as described above. Purified proteins were analyzed by SDS-PAGE.
Trimmed trastuzumab (10 mg/mL, […] obtained by Endo S treatment of trastuzumab, was incubated with the 4-azido-3,5-difluorobenzoyl derivative of UDP-galactosamine (23, 5 mM) and one of the Gal-T1 single mutants Y289L, Y289M, Y289A or Y289G (expressed in CHO as described above) (0.5 mg/mL) in 10 mM MnCl2 and 25 mM Tris-HCl pH 8.0 at 30° C. overnight. Mass spectral analysis of the reduced sample indicated a partial conversion of the core GlcNac(Fuc)-substituted trastuzumab heavy chain (49504 Da) into product 30 (49818 to 49825 Da, 20 to 50% of total heavy chain depending on the Gal-T1 mutant used), resulting from transfer of 23 to core GlcNAc(Fuc)-substituted trastuzumab heavy chain. […]

Gal-T1(Y289M,C342T) = target: T3, Gal-T1(Y289M,C342T) (Bos taurus, UniProt P08037, C342T/Y289M); experiment: Glycosyltransfer to trimmed trastuzumab with Gal-T1(Y289M,C342T) expressed in CHO; details: trimmed trastuzumab 10 mg/mL; UDP derivative 5 mM; enzyme 1.0 mg/mL; pH 8.0, 30° C. overnight
T3 construct: host or cells: CHO K1
T3 sequence (P08037 74-402 V158I/P187L/I205M/L206V/Y289M/C342T): T1 sequence (P08037 74-402 V158I/P187L/I205M/L206V/Y289L/C342T) with L216M
Experimental: as §1, §2

[N-]=[N+]=Nc1c(F)cc(C(=O)N[C@H]2[C@@H](OP(=O)(O)OP(=O)(O)OC[C@H]3O[C@@H](n4ccc(=O)[nH]c4=O)[C@H](O)[C@@H]3O)O[C@H](CO)[C@H](O)[C@@H]2O)cc1F [Compound 23, 4-azido-3,5-difluorobenzoyl Derivative of UDP-GalNH2]
conversion of core GlcNAc(Fuc)-substituted trastuzumab into product (Gal-T1(Y289L,C342T)): complete conversion
observed conversion (Gal-T1(Y289M)): approximately 50%
conversion of core GlcNAc(Fuc)-substituted trastuzumab into product (Gal-T1(Y289M,C342T)): complete conversion

Reference: patent US20170009266A1, “PROCESS FOR THE ATTACHMENT OF A GALNAC MOIETY COMPRISING A (HETERO)ARYL GROUP TO A GLCNAC MOIETY, AND PRODUCT OBTAINED THEREBY” (SYNAFFIX B.V., priority 2014, published 2017)
